# Measurements as given in ChEMBL document CHEMBL1201862, “PubChem BioAssay data set” (2004).
#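 Dose response: 5 concentrations. Exposure: 48 h. Format: 96-well plates. Endpoint: linear interpolation; highest concentration if not reached. GI50 = concentration required for 50% inhibition of growth.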 Calls of active or inactive are those of the source. Cut-off read from the data, not from the text of the source: active = GI50 up to about 1.1 µM and inactive = higher.
# Tests used:
# Assay in all cases: NCI anticancer screen, dose series, 48 h
# [1] = system: 786-0
# [2] = system: A498
# [3] = system: A549
# [4] = system: ACHN
# [5] = system: BT-549
# [6] = system: CAKI-1
# [7] = system: CCRF-CEM
# [8] = system: COLO 205
# [9] = system: DU-145
# [10] = system: EKVX
# [11] = system: HCC 2998
# [12] = system: HCT-116
# [13] = system: HCT-15
# [14] = system: HL-60
# [15] = system: HOP-62
# [16] = system: HOP-92
# [17] = system: HT-29
# [18] = system: Hs-578T
# [19] = system: IGROV-1
# [20] = system: K562
# [21] = system: KM12
# [22] = system: LOX IMVI
# [23] = system: M14
# [24] = system: MCF7
# [25] = system: MDA-MB-231
# [26] = system: MDA-MB-435
# [27] = system: MDA-N
# [28] = system: MOLT-4
# [29] = system: Malme-3M
# [30] = system: NCI-H226
# [31] = system: NCI-H23
# [32] = system: NCI-H460
# [33] = system: NCI-H522
# [34] = system: NCI/ADR-RES
# [35] = system: OVCAR-3
# [36] = system: OVCAR-4
# [37] = system: OVCAR-5
# [38] = system: OVCAR-8
# [39] = system: PC-3
# [40] = system: RPMI-8226
# [41] = system: RXF 393
# [42] = system: SF-268
# [43] = system: SF-295
# [44] = system: SF-539
# [45] = system: SK-MEL-28
# [46] = system: SK-MEL-2
# [47] = system: SK-MEL-5
# [48] = system: SK-OV-3
# [49] = system: SN12C
# [50] = system: SNB-19
# [51] = system: SNB-75
# [52] = system: SW-620
# [53] = system: T47D
# [54] = system: TK-10
# [55] = system: U-251
# [56] = system: UACC-257
# [57] = system: UACC-62
# [58] = system: UO-31
structure (smiles),measurement,setting,value
CC(=O)OC1CC[C@@]2(C)C(=CC[C@@H]3[C@@H]2CC[C@]2(C)Nc4c(cnn4-c4ccc(F)cc4)C[C@@H]32)C1 (stereo partly drawn),GI50,[1],3.26 µM (inactive)
same,GI50,[2],19.8 µM (inactive)
same,GI50,[3],24.3 µM (inactive)
same,GI50,[4],35.3 µM (inactive)
same,GI50,[5],17.3 µM (inactive)
same,GI50,[6],6.1 µM (inactive)
same,GI50,[7],6.46 µM (inactive)
same,GI50,[8],5.45 µM (inactive)
same,GI50,[9],45.5 µM (inactive)
same,GI50,[10],33.5 µM (inactive)
same,GI50,[11],> 100 µM (inactive)
same,GI50,[12],7.4 µM (inactive)
same,GI50,[13],20 µM
same,GI50,[14],2.93 µM (inactive)
same,GI50,[15],5.5 µM (inactive)
same,GI50,[16],53.5 µM (inactive)
same,GI50,[17],13.2 µM (inactive)
same,GI50,[18],14.1 µM (inactive)
same,GI50,[19],42.2 µM (inactive)
same,GI50,[20],21.4 µM (inactive)
same,GI50,[21],16.2 µM (inactive)
same,GI50,[22],7.85 µM (inactive)
same,GI50,[23],30.5 µM (inactive)
same,GI50,[24],> 34.8 µM (inactive)
same,GI50,[25],33 µM (inactive)
same,GI50,[26],39.4 µM (inactive)
same,GI50,[27],39.2 µM (inactive)
same,GI50,[28],2.02 µM (inactive)
same,GI50,[29],9.35 µM (inactive)
same,GI50,[30],59.7 µM (inactive)
same,GI50,[31],22.1 µM (inactive)
same,GI50,[32],12.9 µM (inactive)
same,GI50,[33],68.4 µM (inactive)
same,GI50,[34],60.1 µM (inactive)
same,GI50,[35],> 39.4 µM (inactive)
same,GI50,[36],> 53.5 µM (inactive)
same,GI50,[37],> 87.5 µM (inactive)
same,GI50,[38],40 µM (inactive)
same,GI50,[39],23.1 µM (inactive)
same,GI50,[40],3.24 µM (inactive)
same,GI50,[41],2.64 µM (inactive)
same,GI50,[42],39.4 µM (inactive)
same,GI50,[43],4.53 µM (inactive)
same,GI50,[44],5.33 µM (inactive)
same,GI50,[45],15.1 µM (inactive)
same,GI50,[46],17.9 µM (inactive)
same,GI50,[47],25.9 µM (inactive)
same,GI50,[48],32.1 µM (inactive)
same,GI50,[49],> 100 µM (inactive)
same,GI50,[50],30.9 µM (inactive)
same,GI50,[51],16.8 µM (inactive)
same,GI50,[52],22.9 µM (inactive)
same,GI50,[53],14.9 µM (inactive)
same,GI50,[54],49 µM (inactive)
same,GI50,[55],7.43 µM (inactive)
same,GI50,[56],45.1 µM (inactive)
same,GI50,[57],15.8 µM (inactive)
same,GI50,[58],12.6 µM (inactive)
